In one data set the test system is Swiss-type male mice. The data set can be described thus: RotaRod performance test, motor coordination. As to conditions: for animal residence time on the rotational cylinder compared to controls: 15 minutes after administration; for Mice residence time on the rotational cylinder: 9 rpm, cut off 180 s, mean ± SEM. The procedure:
The assessment of motor coordination in mice, by the rotarod performance test, was carried out to detect any possible sedative or muscle relaxant effect caused by the compounds of the present invention, previously tested in acute and neuropathic pain models. This test was carried out according to the method of described by Dunham & Miya and animal motor coordination was evaluated using RotaRod apparatus [Dunham M. S. & Miya. R. T. (1957). J. Amer. Pharmac. Assoc. Sci. Edit. 1957, 46, 208-209].
The RotaRod apparatus (Model 412 EFF, Insight Equipements, Brazil) is a device that measures motor coordination and thus evaluates balance alterations in mice. The apparatus consists of an acrylic box splited into four compartments with a rotational cylinder among them. The cylinder rotates at constant speed driven by a motor and regulated to the constant speed mode of 5-37 revolutions per minute (rpm). In this study the speed was set up to 9 rpm.
To remain on the rotational cylinder, the animal needs to move around, so that the motor coordination can be quantified. The four compartments have drop detection system, through the impact, a microprocessor circuit, for timing the permanence of the animal at the compartment, and for counting the number of falls.
The day before the test, Swiss-type male mice (19-25 g) were placed on the rotational cylinder, set up to the constant speed mode of 9 rpm for adaptation and learning. A group of 10 mice were used for each tested compound, and the total period spent on the rotational cylinder (in seconds) was recorded for a period of 180 seconds (cut off time) and it was accept a maximum of three falls for each animal. Motor coordination was assessed at times 0 (before treatment), 15, 30, 60 and 120 minutes after compounds administration at a dose of 32.25 μmol/kg.
All compounds were administered intraperitoneally (ip).
The Student's t-test was also used to compare means between two experimental groups. Differences were considered significant when p<0.05.
(Falling from the rotarod earlier than controls is read as motor impairment.)

Data set [1] has as its system rats subjected to SNL. The experiment in a line: Spinal nerve ligation (SNL) L5 model, mechanical allodynia (digital Von Frey). In kind it is in vivo, rat. To be noted: for paw withdrawal threshold, mechanical allodynia: after 3 days of treatment, 32.25 μmol/kg ip, p<0.05; for reversal of allodynia signs associated with neuropathic pain: ip during 7 days, 32.25 μmol/kg. The procedure: (§1) This experimental model was proposed by Kim and Chung [Kim, S. H.; Chung, J. M. Pain 1992, 50: 355-363] and consists of ligation of spinal nerves. Male Wistar rats, 180-220 g, were anesthetized with a mixture of ketamine and xylazine (60 mg/kg and 5 mg/kg, respectively) intraperitoneally. After the dorsal region asepsy, an incision was made between L5 and S1. The L6 transverse process was removed for locating the nerves L4 and L5, which were carefully isolated, and tight ligation of the L5 nerve with 6.0 silk thread was made, interrupting flow of the axon of the nerve. After this procedure, para-spinal muscles and skin were sutured, and then a topical antiseptic was applied. False operated animals (sham) were subjected to the same procedure, however the spinal nerve was not ligated.
To evaluate the development of mechanical allodynia, digital analgesimeter (Model EFF301; Insight Equipments), digitalized version coupled to a pointed filament (Von Frey model variant) was used. This test aims to assess changes in tactile sensitivity in response to a mechanical stimulus as a result of a neural damage. The device consisted of a hand-held force transducer fitted with a sensor tip, through which a pressure with increasing strength is applied against the footpad of the animals hindpaw to assess the threshold of paw withdrawal, that is, the digital analgesimeter records the maximal strength, in grams (g), in which the animal withstands until the paw withdrawal reflex.
Animals were placed in individual acrylic boxes and let to acclimate for 30 min before the beginning of the test. After this period, the thresholds of hindpaw withdrawal were determinded. For each hindpaw, five records of the withdrawal thresholds were made, and the average for each hindpaw was defined as the paw withdrawal threshold control.
(§2) The treatment started on the 7th day after surgery. Compounds were diluted in water or DMSO and administered through intraperitoneal route on daily basis, during 7 days, at a dose of […]. The effectiveness of tested compounds was assessed on days 1, 3, and 7 days after treatment, always before the next administration of the compound. Latencies were also assessed on days 1, 3, and 7 after treatment interruption.
(§3) Differences were considered significant when p<0.05.

The subject of data set [2] is rats subjected to SNL. The data set can be described thus: Spinal nerve ligation (SNL) L5 model, thermal hyperalgesia. In kind it is in vivo, rat. To be noted: for effect on thermal hyperalgesia after treatment interruption: after 7 days of 32.25 μmol/kg ip; for paw withdrawal latency, thermal hyperalgesia: after 7 days of treatment; for reversal of hyperalgesia signs associated with neuropathic pain: ip during 7 days, 32.25 μmol/kg. The procedure: as §1
This method aims to evaluate the animal behavior in response to hyperalgesic phenomenon resulting from the injury induced by the ligament of spinal nerve (L5). In this regard, paw withdrawal in response to thermal stimulus was used, and the thermal stimulus was induced by the radiant heat of an incandescent lamp bulb. The paw withdrawal test was performed as described for the assessment of thermal hyperalgesia in the sciatic nerve chronic constrictive injury model.
as §3, §2

The subject of data set [3] is rats subjected to sciatic nerve CCI. The data set can be described thus: Chronic constrictive injury (CCI) of the sciatic nerve, thermal hyperalgesia, paw withdrawal test. It is filed as in vivo, rat. As to conditions: for antinociceptive effect, paw withdrawal latency vs post-surgery control: first day of treatment; for antinociceptive effect, paw withdrawal latency vs post-surgery control / increase in latency of paw withdrawal: 32.25 μmol/kg ip; for increase in latency of paw withdrawal: since the 3rd day of treatment, p<0.05 or p<0.005. The procedure: The chronic constrictive injury (CCI) was induced by sciatic nerve ligation according to the method described by Bennett and Xie [Bennett. G. J.; Xie, Y. K. Pain […], 33: 87-107]. Male Wistar rats, weighing 180-240 g, were anesthetized with a mixture of ketamine and xylazine (60 mg/kg and 5 mg/kg, respectively), intraperitoneally. Through an incision of 0.5 cm (parallel and spaced about 10 mm from the left femur) the sciatic nerve was identified. With a thin glass rod, a small segment of sciatic nerve was exposed and four loosely ligatures were placed around the sciatic nerve spaced 1 mm each other using a 3-0 silk suture thread. After the procedure, the skin was sutured and a topical antiseptic was applied.
To assess animal behavior in response to hyperalgesic phenomenon resulting from sciatic nerve chronic constrictive injury, the model described by Hargreaves and Dubner was used [Hargreaves K., Dubner R., Brown F., Flores C., Joris J. Pain 1988, 32 (1): 77-88]. In this regard, paw withdrawal in response to a painful phenomenon was performed. This is a nociceptive test which involves a peripheral short thermal stimulus induced by the radiant heat of an incandescent lamp bulb. […] Radiant heat has an advantage over the other modes of thermal stimulation in that it produces no tactile stimulus. [Le Bars D., Gozariu M., Cadden S. W. Pharmacology Reviews, 2001, 53 (4), 597-652]. In this assay, a plantar test analgesimeter (ITC Life Science Inc, USA) was used.
Animals were placed in transparent acrylic boxes with tempered glass pane floor for 40 minutes to acclimate. After this period, the radiant heat was applied to the footpads of animals's hindpaws until they make the movement of paw withdrawal. The paw withdrawal latency was defined as the time recorded from the beginning of the radiant heat stimulus and the paw withdrawal. For each paw, three latency records were made, and the average value was used to define the paw withdrawal time control The maximum time that each animal was exposed to the radiant heat source (cut-off) was defined as three times the paw withdrawal time control, to avoid tissue injuries in animals's paws.
The day before surgery, rats, defined as “control before surgery”, were placed in acrylic boxes to the paw withdrawal test. On the 7th day after the surgery (CCI), the paw withdrawal test was again performed in order to verify neuropathic pain has been effectively developed in the left paw—defined as “post-surgery control.”
The paw withdrawal test was assessed during the days 1, 3, and 7 of the treatment (with amitriptyline hydrochloride or the compounds of examples of the instant invention) and on days 1, 3, and 7 after treatment interruption.
as §3

Setting [4] is: T 15 min after ip administration, 32.25 μmol/kg.
The mark [5] stands for this setting: T 30 min after ip administration, 32.25 μmol/kg (diazepam 2 mg/kg).
Setting [6] is: T 60 min after ip administration, 32.25 μmol/kg (diazepam 2 mg/kg).
Setting [7] is: T 120 min after ip administration, 32.25 μmol/kg (diazepam 2 mg/kg).

Take `Cl.Cl.Fc1ccc(-c2n[nH]cc2CCN2CCCCC2)cc1.O` [C3, 1-{2-[3-(4-fluorophenyl)-1H-pyrazol-4-yl]ethyl}piperidine dihydrochloride monohydrate]: the “animal residence time on the rotational cylinder compared to controls” value (shortened to “animal residence time … compared to controls”) in the data set with Swiss-type male mice (32.25 μmol/kg) was “equal to the time observed for the negative control, and significantly higher than the time observed for the control amitriptyline hydrochloride”. Further, the “Mice residence time on the rotational cylinder” value (“Mice residence time” below) with Swiss-type male mice (setting [4]) amounted to 180.0 s; in the data set on Swiss-type male mice (setting [5]), 178.2 s; in the data set on Swiss-type male mice (setting [6]) it was 178.7 s; in the data set with Swiss-type male mice (setting [7]) it was 180.0 s. Also, the “paw withdrawal threshold, mechanical allodynia” value with rats subjected to SNL [1] is “significant (p<0.05) paw withdrawal threshold”. In addition, the “analgesic effect on mechanical allodynia after treatment interruption” value in the data set on rats subjected to SNL [1] (after 7 days of 32.25 μmol/kg ip) is recorded as “analgesic effect is maintained until the first day after treatment interruption”. For the same compound, the “effect on thermal hyperalgesia after treatment interruption” value with rats subjected to SNL [2] is “still observed up to 1 day after treatment interruption”. The “increase in paw withdrawal latency” value in the data set with rats subjected to SNL [2] (since the first day of treatment, 32.25 μmol/kg ip) is “statistically significant increase in paw withdrawal latency”. Also, the “onset of significant increase in latency” value in data set [3] (5 mg/kg ip) and in data set [3] (10 mg/kg ip) was “significant increase in latency starting on day 3 of treatment” in each case. Moreover, the “reversal of signs of thermal hyperalgesia” value in data set [3] (5 mg/kg ip during 7 days) and in data set [3] (10 mg/kg ip during 7 days) was “effective in reversing the signs of thermal hyperalgesia” each time. For the same compound, the “antinociceptive effect, paw withdrawal latency vs post-surgery control” value (“antinociceptive effect … vs post-surgery control” for short) in data set [3] is recorded as “antinociceptive effects in the first day of treatment”. Besides, the “increase in latency of paw withdrawal” value in data set [3] is “statistically significant increase in latency of paw withdrawal”.
On to `CN1CCN(CCc2c[nH]nc2-c2ccc(F)cc2)CC1.Cl.Cl.Cl.O.O` [C11, 1-{2-[3-(4-fluorophenyl)-1H-pyrazol-4-yl]ethyl}-4-methylpiperazine trihydrochloride dihydrate], for which the “animal residence time … compared to controls” value in the data set on Swiss-type male mice (32.25 μmol/kg) is “equal to the time observed for the negative control, and significantly higher than the time observed for the control amitriptyline hydrochloride”. In addition, the “Mice residence time” value with Swiss-type male mice (setting [4]) is given as 180.0 s; with Swiss-type male mice (setting [5]), 177.0 s; in the data set with Swiss-type male mice (setting [6]), 178.5 s; in the data set with Swiss-type male mice (setting [7]), 176.7 s. For the same compound, in the data set with rats subjected to SNL [1], the “paw withdrawal threshold, mechanical allodynia” value is reported as “significant (p<0.05) paw withdrawal threshold”. Besides, in the data set with rats subjected to SNL [1], the “reversal of allodynia signs associated with neuropathic pain” value was “effective in reverse the hyperalgesia and allodynia signs”. Besides, in the data set with rats subjected to SNL [2] (32.25 μmol/kg ip), the “paw withdrawal latency, thermal hyperalgesia” value is given as “statistically significant antinociceptive effect”. The “reversal of hyperalgesia signs associated with neuropathic pain” value with rats subjected to SNL [2] is “effective in reverse the hyperalgesia and allodynia signs”. Moreover, the “antinociceptive effect … vs post-surgery control” value in data set [3] was “antinociceptive effects in the first day of treatment”. Besides, in data set [3], the “increase in latency of paw withdrawal” value was “statistically significant increase in latency of paw withdrawal”.
In the case of `Cl.OC1(c2ccc(Cl)cc2)CCN(CCc2conc2-c2ccc(F)cc2)CC1` [C15, 4-(4-chlorophenyl)-1-{2-[3-(4-fluorophenyl)-1,2-oxazol-4-yl]ethyl}piperidin-4-ol hydrochloride], the “animal residence time … compared to controls” value in the data set on Swiss-type male mice (32.25 μmol/kg) is “equal to the time observed for the negative control, and significantly higher than the time observed for the control amitriptyline hydrochloride”. In addition, the “Mice residence time” value in the data set on Swiss-type male mice (setting [4]) was 180.0 s; in the data set with Swiss-type male mice (setting [5]) it was 179.0 s; with Swiss-type male mice (setting [6]) it was 179.2 s; in the data set on Swiss-type male mice (setting [7]), 180.0 s. In the data set with rats subjected to SNL [1], the “reversal of allodynia signs associated with neuropathic pain” value was “effective in reverse the hyperalgesia and allodynia signs”. Moreover, in the data set on rats subjected to SNL [2], the “effect on thermal hyperalgesia after treatment interruption” value is “maintained for 1 day after treatment interruption”. Also, in the data set on rats subjected to SNL [2] (32.25 μmol/kg ip), the “paw withdrawal latency, thermal hyperalgesia” value is “statistically significant antinociceptive effect”. The “reversal of hyperalgesia signs associated with neuropathic pain” value with rats subjected to SNL [2] is “effective in reverse the hyperalgesia and allodynia signs”. Moreover, the “antinociceptive effect … vs post-surgery control” value in data set [3] was “antinociceptive effects in the first day of treatment”. Further, the “increase in latency of paw withdrawal” value in data set [3] is reported as “statistically significant increase in latency of paw withdrawal”.
